Values after ≈ are worked out from the molar mass of the structure shown. Values joined by “and” are separate entries in the source; they are usually repeats but may differ in a detail not shown here. Equal values may be shown once. Read-outs that look alike come from different tables or passages of the source.
Assays:
[1] = tested on: M. tuberculosis H37Rv; assay: Minimum inhibitory concentration (MIC) in the MABA; format: cell-based, Mycobacterium tuberculosis
Procedure: (§1) The activity of the compounds of the present invention against Mycobacterium tuberculosis was determined using the following assays conducted by the National Institute of Allergy and Infectious Diseases (NIAID) supports a TB drug acquisition and screening program, the TAACF.
2. Minimum Inhibitory Concentration (MIC)
The MIC is defined as the lowest concentration effecting a reduction in fluorescence of 90% relative to controls. Minimum compound requirements: 1.0 mg.

[2] = tested on: VERO cells; conditions: for IC50: Table 5, VERO cells
[3] = tested on: VERO cells; assay: cells; conditions: Chlorocebus sabaeus, Table 5
[4] = tested on: Plasmodium falciparum chloroquine-susceptible strain D6; assay: In vitro antimalarial drug susceptibility assay (radiolabeled hypoxanthine incorporation), strain D6; format: cell-based; conditions: for Strain D6 IC50: growth inhibition, chloroquine-susceptible strain D6, 66 h incubation; for IC50: Plasmodium falciparum, D6, 66 h, read-out: Strain D6 IC50, growth inhibition, chloroquine-susceptible strain D6, 66 h incubation
[5] = tested on: Plasmodium falciparum chloroquine-resistant strain W2; assay: microbe, parasite or virus in culture; format: cell-based; conditions: for Strain W2 IC50: growth inhibition, chloroquine-resistant strain W2, 66 h incubation; for IC50: Plasmodium falciparum, W2, 66 h, read-out: Strain W2 IC50, growth inhibition, chloroquine-resistant strain W2, 66 h incubation
[6] = tested on: D6 and W2 P. falciparum clones; format: cell-based, Plasmodium falciparum; conditions: IC50 (W2)/IC50 (D6) ratio
[7] = tested on: Mycobacterium tuberculosis H37Rv (ATCC 27294); assay: Primary screen, Microplate Alamar Blue Assay (MABA), percent inhibition; format: cell-based; conditions: Table 5, Alamar assay, primary screening at 6.25 μg/ml; for inhibition at 6.25 µg/mL: Mycobacterium tuberculosis, read-out: % Inhib
Procedure: as §1
To determine the percent inhibition the following assay was conducted. Primary screening was conducted at 6.25 μg/ml (or the molar equivalent of highest molecular weight compound in a given series of congeners) against Mycobacterium tuberculosis H37Rv (ATCC 27294) in BACTEC 12B medium using the Microplate Alamar Blue Assay (MABA). See Collins, L. and S. G. Franzblau. 1997. Microplate alamar blue assay versus BACTEC 460 system for high-throughput screening of compounds against Mycobacterium tuberculosis and Mycobacterium avium. Antimicrob Agents Chemother 41:1004-9, which is herein incorporated by reference.
Minimum compound requirements: 1.0 mg.

[8] = Mycobacterium tuberculosis, H37RV, Table 5, Alamar assay, M. tuberculosis H37Rv, read-out: MIC
[9] = ratio of IC50 in VERO cells to MIC (M. tuberculosis H37Rv)
[10] = Table 5, Alamar assay, M. tuberculosis H37Rv

Row | Compound | MIC ([1]; Mycobacterium tuberculosis, H37RV, Table 3, H37Rv, read-out: MIC) | MIC [1, 8] [µg/mL] | SI (selectivity index) [2] | IC50 [3] [µg/mL] | Strain D6 IC50 [4] [µg/mL] | Strain W2 IC50 [5] [µg/mL] | Resistance Index [6] | % Inhib [7] [%] | SI (selectivity index) [2, 9] | IC50 [4] [µg/mL] | IC50 [5] [µg/mL] | Resistance Index ([6]; listed as 12) | inhibition at 6.25 µg/mL [7] [%] | MIC [1, 10] [µg/mL] | IC50 [2] [µg/mL]
1 | NNC(=O)c1ccncc1 [Isoniazid, reference compound] | 0.05 µg/mL and 0.36 µM | 0.025 to 0.05 (≈ 0.182 to 0.365 µM) | > 40,000 | > 1000 | – | – | – | – | – | – | – | – | – | – | –
2 | CCCNC(=O)CCC(C)[C@H]1CCC2C3C(C[C@H](OC(C)=O)[C@@]21C)[C@@]1(C)CCC2(C[C@H]1C[C@H]3OC(C)=O)OOC1(CCC(CC)CC1)OO2 (single isomer, unassigned) [28/1C38, N-(n-Propyl)-7α,12α-Diacetoxy-5β-cholan-24-amide-3-spiro-6′-(1′,2′,4′,5′-tetraoxacyclohexane)-3′-spiro-1″-((4″R or S)-ethyl)cyclohexane] | – | 6.25 (≈ 9.06 µM) | – | 2.28 (≈ 3.3 µM) | 0.00576 | 0.00312 | 0.54 | 92 | 0.36 | – | – | – | – | – | –
3 | COC(=O)CNC(=O)CCC(C)[C@H]1CCC2C3C(C[C@H](OC(C)=O)[C@@]21C)[C@@]1(C)CCC2(C[C@H]1C[C@H]3OC(C)=O)OOC1(CCCCC1)OO2 (stereo partly drawn) [12/1C21, N-(Methyl ethanoate-2-yl)-7α,12α-diacetoxy-5β-cholan-24-amide-3-spiro-6′-(1′,2′,4′,5′-tetraoxacyclohexane)-3′-spirocyclohexane] | – | 6.25 (≈ 9.03 µM) | – | 5.42 (≈ 7.83 µM) | – | – | 0.49 | – | 0.87 | 0.0152 (≈ 0.022 µM) | 0.00745 (≈ 0.0108 µM) | ca. 0.5 | 99 | – | –
4 | CCC1CCC2(CC1)OOC1(CC[C@]3(C)C4C[C@H](OC(C)=O)[C@@]5(C)C(CC[C@@H]5C(C)CCC(N)=O)C4[C@H](OC(C)=O)C[C@@H]3C1)OO2 (single isomer, unassigned) [25/1C35, 7α,12α-Diacetoxy-5β-cholan-24-amide-3-spiro-6′-(1′,2′,4′,5′-tetraoxacyclohexane)-3′-spiro-1″-((4″R or S)-ethyl)cyclohexane] | – | 3.13 (≈ 4.83 µM) | – | 4.65 (≈ 7.18 µM) | 0.00544 | – | 1.27 | – | 1.48 | – | 0.00693 (≈ 0.0107 µM) | – | 100 | – | –
5 | CCC1CCC2(CC1)OOC1(CC[C@]3(C)C4C[C@H](OC(C)=O)[C@@]5(C)C(CC[C@@H]5C(C)CCC(=O)NC)C4[C@H](OC(C)=O)C[C@@H]3C1)OO2 (single isomer, unassigned) [26/1C36, N-Methyl-7α,12α-Diacetoxy-5β-cholan-24-amide-3-spiro-6′-(1′,2′,4′,5′-tetraoxacyclohexane)-3′-spiro-1″-((4″R or S)-ethyl)cyclohexane] | – | – | – | 1.83 (≈ 2.76 µM) | 0.00477 | – | 1.08 | – | 1.17 | – | 0.00517 (≈ 0.00781 µM) | – | 99 | 1.56 (≈ 2.36 µM) | –
6 | CC(=O)O[C@H]1CC2C(C3CC[C@H](C(C)CCC(N)=O)[C@]31C)[C@H](OC(C)=O)C[C@@H]1CC3(CC[C@]21C)OOC1(CCC(C)CC1)OO3 (stereo partly drawn) [21/1C30, 7α,12α-Diacetoxy-5β-cholan-24-amide-3-spiro-6′-(1′,2′,4′,5′-tetraoxacyclohexane)-3′-spiro-1″-((4″S)-methyl)cyclohexane] | – | – | – | – | 0.0127 | 0.00894 | 0.70 | 99 | 0.39 | – | – | – | – | 6.25 (≈ 9.86 µM) | 2.43 (≈ 3.83 µM)
7 | CNC(=O)CCC(C)[C@H]1CCC2C3C(C[C@H](OC(C)=O)[C@@]21C)[C@@]1(C)CCC2(C[C@H]1C[C@H]3OC(C)=O)OOC1(CCC(C)CC1)OO2 (stereo partly drawn) [22/1C31, N-Methyl-7α,12α-diacetoxy-5β-cholan-24-amide-3-spiro-6′-(1′,2′,4′,5′-tetraoxacyclohexane)-3′-spiro-1″-((4″S)-methyl)cyclohexane] | – | – | – | – | 0.01079 | 0.00769 | 0.71 | 99 | 0.29 | – | – | – | – | 6.25 (≈ 9.65 µM) | 1.83 (≈ 2.82 µM)
8 | CC(=O)O[C@H]1CC2C(C3CC[C@H](C(C)CCC(N)=O)[C@]31C)[C@H](OC(C)=O)C[C@@H]1CC3(CC[C@]21C)OOC1(CCCCC1)OO3 (stereo partly drawn) [10/1C19, 7α,12α-Diacetoxy-5β-cholan-24-amide-3-spiro-6′-(1′,2′,4′,5′-tetraoxacyclohexane)-3′-spirocyclohexane] | – | 6.25 (≈ 10.1 µM) | – | 4.94 (≈ 7.97 µM) | – | – | 0.40 | – | 0.79 | 0.00733 (≈ 0.0118 µM) | 0.00294 (≈ 0.00474 µM) | – | 99 | – | –
9 | CCNC(=O)CCC(C)[C@H]1CCC2C3C(C[C@H](OC(C)=O)[C@@]21C)[C@@]1(C)CCC2(C[C@H]1C[C@H]3OC(C)=O)OOC1(CCCCC1C)OO2 (stereo partly drawn) [15/1C24, N-Ethyl-7α,12α-diacetoxy-5β-cholan-24-amide-3-spiro-6′-(1′,2′,4′,5′-tetraoxacyclohexane)-3′-spiro-1″-(2″-methyl)cyclohexane] | – | 3.13 (≈ 4.73 µM) | – | 7.02 (≈ 10.6 µM) | – | – | 0.55 | – | 2.24 | 0.00837 (≈ 0.0126 µM) | 0.00461 (≈ 0.00697 µM) | – | 98 | – | –
10 | CNC(=O)CCC(C)[C@H]1CCC2C3C(C[C@H](OC(C)=O)[C@@]21C)[C@@]1(C)CCC2(C[C@H]1C[C@H]3OC(C)=O)OOC1(CCCCC1C)OO2 (stereo partly drawn) [14/1C23, N-Methyl-7α,12α-diacetoxy-5β-cholan-24-amide-3-spiro-6′-(1′,2′,4′,5′-tetraoxacyclohexane)-3′-spiro-1″-(2″-methyl)cyclohexane] | – | 3.13 (≈ 4.83 µM) | – | 5.63 (≈ 8.69 µM) | – | – | 0.64 | – | 1.8 | 0.0102 (≈ 0.0158 µM) | 0.00649 (≈ 0.01 µM) | – | 99 | – | –
11 | CCC1CCC2(CC1)OOC1(CC[C@]3(C)C4C[C@H](OC(C)=O)[C@@]5(C)C(CC[C@@H]5C(C)CCC(=O)NC)C4[C@H](OC(C)=O)C[C@@H]3C1)OO2 (single isomer, unassigned) [30/1C41, N-Methyl-7α,12α-Diacetoxy-5β-cholan-24-amide-3-spiro-6′-(1′,2′,4′,5′-tetraoxacyclohexane)-3′-spiro-1″-((4″S or R)-ethyl)cyclohexane] | – | – | – | – | 0.0185 | 0.00407 | 0.22 | 99 | 0.50 | – | – | – | – | 3.13 (≈ 4.73 µM) | 1.59 (≈ 2.4 µM)
12 | CC(=O)O[C@H]1CC2C(C3CC[C@H](C(C)CCC(=O)O)[C@]31C)[C@H](OC(C)=O)C[C@@H]1CC3(CC[C@]21C)OOC1(CCCCC1C)OO3 (stereo partly drawn) [9d/1C16, 7α,12α-Diacetoxy-5β-cholan-24-oic acid-3-spiro-6′-(1′,2′,4′,5′-tetraoxacyclohexane)-3′-spiro-1″-(2″-methyl)cyclohexane] | – | > 6.25 | – | – | – | – | 0.56 | – | – | 0.0429 (≈ 0.0676 µM) | 0.0238 (≈ 0.0375 µM) | – | 0 | – | –
13 | COC(=O)CCC(C)[C@H]1CCC2C3C(C[C@H](OC(C)=O)[C@@]21C)[C@@]1(C)CCC2(C[C@H]1C[C@H]3OC(C)=O)OOC1(CCCC1)OO2 (stereo partly drawn) [8a/1B04, Methyl 7α,12α-Diacetoxy-5β-cholan-24-oate-3-spiro-6′-(1′,2′,4′,5′-tetraoxacyclohexane)-3′-spirocyclopentane] | – | > 6.25 | – | – | – | – | 0.71 | – | – | 0.0243 (≈ 0.0391 µM) | 0.0172 (≈ 0.0277 µM) | – | 0 | – | –

From patent US6906098B2, “Mixed steroidal 1,2,4,5-tetraoxane compounds and methods of making and using thereof” (priority 2002, dated 2005)
